In patent US10912821B2, “Diketopiperazine salts for drug delivery and related methods” (MannKind Corporation, priority 2004, dated 2021):
Values joined by “and” are separate entries in the source; they are usually repeats but may differ in a detail not shown here. Equal entries are not always repeated.

Tests used:
[1] = tested on: cell membranes or tight junctions; format: cell-based
Excerpt: Diketopiperazine facilitate transcellular transport of biologically active agents across biological tissues however they are not penetration enhancers. Penetration enhancers are compounds that improve drug movement across biological tissues by disrupting cell membranes. Examples of penetration enhancers are surfactants and soaps. […] Diketopiperazine/insulin powder compositions are soluble at the physiological pH of the lung surface and dissolve rapidly after inhalation. Once dissolved, the DKP facilitates passive transcellular transport of the insulin.

[2] = Laser diffraction particle size analysis; format: physicochemical
Excerpt: The microparticles described in Examples 6 and 7 were subjected to laser diffraction particle size analysis (SympatecGmbH, Germany) (FIGS. 1A and 1B).

Row | Fine Particle Fraction (<5.8 μm) [2] | Particle Size 0.5-5 μm [2] | Particle Size <3 μm [2] | VMD (volume median diameter) [2] | X10 [2] | X16 [2] | X50 [2] | X84 [2] | X90 [2] | X99 [2] | SMILES | cell viability [1] | disruption of cell membranes or tight junctions [1]
1 |  |  |  |  |  |  |  |  |  |  | O=C(O)/C=C/C(=O)NCCCCC1NC(=O)C(CCCCNC(=O)/C=C/C(=O)O)NC1=O (stereo not drawn) [FDKP, 3,6-di(fumaryl-4-aminobutyl)-2,5-diketopiperazine] | does not compromise cell viability | does not disrupt cell membranes or tight junctions
2 | 91.46% and 86.01% | 87.91% and 80.13% | 53.39% and 47.37% | 3.70 μm and 3.76 μm | 1.60 μm and 1.55 μm | 1.44 μm and 1.36 μm | 2.89 μm and 3.11 μm | 4.60 μm and 5.53 μm | 5.47 μm and 6.64 μm | 19.20 μm and 14.04 μm | O=C([O-])C=CC(=O)NCCCCC1NC(=O)C(CCCCNC(=O)C=CC(=O)[O-])NC1=O.[Na+].[Na+] (stereo not drawn) [Preparation A] |  | 
